Assay results taken from PubChem BioAssay AID328 (DTP/NCI, 2004).
Several values for one entry are separate records, joined by “and”; a condition that tells them apart may be missing. Equal values may be shown once. Toxic doses and inconclusive results are not listed.

System: BDF1 mice, P388 leukemia ip, median survival T/C
Test: NCI In Vivo Anticancer Drug Screen. Data for tumor model P388 Leukemia (intraperitoneal) in B6D2F1 (BDF1) mice
Conditions: endpoint: median survival time, higher = longer survival
Method in brief: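 T/C = treated-group survival ÷ vehicle-control survival; tumour transplanted into mice before dosing.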

[1] = dose: 100.0 mg/kg/injection, schedule: Q04DX003 (ip), vehicle: saline with Tween-80
[2] = dose: 200.0 mg/kg/injection, schedule: Q04DX003 (ip), vehicle: saline with Tween-80
[3] = dose: 100.0 mg/kg/injection, schedule: Q01DX009 (ip), vehicle: saline with Tween-80
[4] = dose: 200.0 mg/kg/injection, schedule: Q01DX009 (ip), vehicle: saline with Tween-80
[5] = dose: 400.0 mg/kg/injection, schedule: Q01DX009 (ip), vehicle: saline with Tween-80
[6] = dose: 400.0 mg/kg/injection, schedule: Q04DX003 (ip), vehicle: saline with Tween-80
[7] = dose: 12.5 mg/kg/injection, schedule: Q01DX009 (ip), vehicle: saline with Tween-80
[8] = dose: 25.0 mg/kg/injection, schedule: Q01DX009 (ip), vehicle: saline with Tween-80
[9] = dose: 25.0 mg/kg/injection, schedule: Q04DX003 (ip), vehicle: saline
[10] = dose: 50.0 mg/kg/injection, schedule: Q01DX009 (ip), vehicle: saline with Tween-80
[11] = dose: 50.0 mg/kg/injection, schedule: Q04DX003 (ip), vehicle: saline
[12] = dose: 100.0 mg/kg/injection, schedule: Q04DX003 (ip), vehicle: saline
[13] = dose: 200.0 mg/kg/injection, schedule: Q04DX003 (ip), vehicle: saline
[14] = dose: 400.0 mg/kg/injection, schedule: Q04DX003 (ip), vehicle: saline
[15] = dose: 50.0 mg/kg/injection, schedule: Q01DX009 (ip), vehicle: Klucel (hydroxypropylcellulose) (HPC)
[16] = dose: 100.0 mg/kg/injection, schedule: Q04DX003 (ip), vehicle: Klucel (hydroxypropylcellulose) (HPC)
[17] = dose: 200.0 mg/kg/injection, schedule: Q01DX009 (ip), vehicle: Klucel (hydroxypropylcellulose) (HPC)
[18] = dose: 200.0 mg/kg/injection, schedule: Q04DX003 (ip), vehicle: Klucel (hydroxypropylcellulose) (HPC)

## CCN(CC)CCN1C(=O)CN=C(c2ccccn2)c2cc(Cl)ccc21
dose: 50.0 mg/kg/injection, schedule: Q04DX003 (ip), vehicle: saline with Tween-80
  T/C: 95 % of control
[1]
  T/C: 100 % of control
[2]
  T/C: 105 % of control

## COc1cccc(NC(=O)CCC(=O)O)c1
[3]
  T/C: 104 % of control
[4]
  T/C: 100 % of control
[5]
  T/C: 100 % of control

## C=C(C(N)=O)c1cc(Cl)ccc1Cl
dose: 100.0 mg/kg/injection, schedule: Q01DX009 (ip), vehicle: water
  T/C: 110 % of control
[1]
  T/C: 100 % of control
dose: 200.0 mg/kg/injection, schedule: Q01DX009 (ip), vehicle: water
  T/C: 100 % of control
[2]
  T/C: 95 % of control
dose: 400.0 mg/kg/injection, schedule: Q01DX009 (ip), vehicle: water
  T/C: 100 % of control
[6]
  T/C: 95 % of control

## CCCCOP(=O)(CCCC)OCCCC
[7]
  T/C: 109 % of control
dose: 12.5 mg/kg/injection, schedule: Q04DX003 (ip), vehicle: saline
  T/C: 100 % of control
[8]
  T/C: 104 % of control
[9]
  T/C: 104 % of control
[10]
  T/C: 109 % of control
[11]
  T/C: 104 % of control

## CC1([CH2][Hg][Cl])Cc2ccccc2O1 (stereo not drawn)
dose: 1.56 mg/kg/injection, schedule: Q04DX003 (ip), vehicle: saline with Tween-80
  T/C: 92 % of control
dose: 3.13 mg/kg/injection, schedule: Q04DX003 (ip), vehicle: saline with Tween-80
  T/C: 88 % of control

## COC1CC=CC2=C1CCC1C2CC2C(=O)C1(C)CCC2O (stereo not drawn)
dose: 100.0 mg/kg/injection, schedule: Q01DX001 (ip), vehicle: other
  T/C: 105 % of control
dose: 200.0 mg/kg/injection, schedule: Q01DX001 (ip), vehicle: other
  T/C: 100 % of control
dose: 400.0 mg/kg/injection, schedule: Q01DX001 (ip), vehicle: other
  T/C: 100 % of control

## CN(CCCN(C)N=Nc1ccccc1C(=O)O)N=Nc1ccccc1C(=O)O
[12]
  T/C: 92 % of control
[13]
  T/C: 88 % of control
[14]
  T/C: 92 % of control

## C[CH2][Ge]([CH2]C)[CH2]/C=C\[CH2][Ge]([CH2]C)[CH2]C
[7]
  T/C: 100 % of control
[8]
  T/C: 89 % of control
[10]
  T/C: 100 % of control

## CCOC(=O)c1ccc(N)c(C(O)(C(F)(F)F)C(F)(F)F)c1
[3]
  T/C: 90 % of control
[4]
  T/C: 100 % of control
[5]
  T/C: 104 % of control

## O=[n+]1c2c(n([O-])c3ccccc31)-c1cccc3cccc-2c13
dose: 25.0 mg/kg/injection, schedule: Q01DX010 (ip), vehicle: saline
  T/C: 95 % of control
dose: 50.0 mg/kg/injection, schedule: Q01DX010 (ip), vehicle: saline
  T/C: 91 % of control
dose: 100.0 mg/kg/injection, schedule: Q01DX010 (ip), vehicle: saline
  T/C: 91 % of control

## CC(=O)Nc1cc(OC(C)=O)n(-c2ccccc2)n1
dose: 87.5 mg/kg/injection, schedule: Q01DX009 (ip), vehicle: saline with Tween-80
  T/C: 97 % of control
dose: 175.0 mg/kg/injection, schedule: Q01DX009 (ip), vehicle: saline with Tween-80
  T/C: 86 % of control
dose: 350.0 mg/kg/injection, schedule: Q01DX009 (ip), vehicle: saline with Tween-80
  T/C: 98 % of control

## CC(C)CCCC(C)CCO (stereo not drawn)
dose: 50.0 mg/kg/injection, schedule: Q01DX009 (ip), vehicle: saline
  T/C: 100 % of control
dose: 100.0 mg/kg/injection, schedule: Q01DX009 (ip), vehicle: saline
  T/C: 100 % of control
dose: 200.0 mg/kg/injection, schedule: Q01DX009 (ip), vehicle: saline
  T/C: 101 % of control

## O=C1OC(=O)C2C1C(c1ccc([N+](=O)[O-])cc1)N1C3C(=O)OC(=O)C3C(c3ccc([N+](=O)[O-])cc3)N21 (stereo not drawn)
[10]
  T/C: 97 % of control
[3]
  T/C: 99 % of control
[4]
  T/C: 92 % of control

## Cc1cc(O)c2c(c1)C(c1ccc3cc4c(c(O)c3c1O)C(=O)CC(C)(O)C4)c1cccc(O)c1C2=O (stereo not drawn)
dose: 0.09 mg/kg/injection, schedule: Q01DX009 (ip), vehicle: olive oil, sesame oil, peanut oil
  T/C: 102 % of control
dose: 0.19 mg/kg/injection, schedule: Q01DX009 (ip), vehicle: olive oil, sesame oil, peanut oil
  T/C: 100 % of control
dose: 0.39 mg/kg/injection, schedule: Q01DX009 (ip), vehicle: olive oil, sesame oil, peanut oil
  T/C: 102 % of control
dose: 0.78 mg/kg/injection, schedule: Q01DX009 (ip), vehicle: olive oil, sesame oil, peanut oil
  T/C: 106 % of control

## O=C1OC(c2ccc([N+](=O)[O-])cc2)Sc2ccccc21 (stereo not drawn)
[15]
  T/C: 86 % of control
dose: 100.0 mg/kg/injection, schedule: Q01DX001 (ip), vehicle: Klucel (hydroxypropylcellulose) (HPC)
  T/C: 100 % of control
[16]
  T/C: 100 % of control
dose: 200.0 mg/kg/injection, schedule: Q01DX001 (ip), vehicle: Klucel (hydroxypropylcellulose) (HPC)
  T/C: 100 % of control
[17]
  T/C: 100 % of control
[18]
  T/C: 104 % of control
dose: 400.0 mg/kg/injection, schedule: Q01DX001 (ip), vehicle: Klucel (hydroxypropylcellulose) (HPC)
  T/C: 100 % of control
dose: 400.0 mg/kg/injection, schedule: Q04DX003 (ip), vehicle: Klucel (hydroxypropylcellulose) (HPC)
  T/C: 109 % of control

## CC(CNC(=O)CCOS(C)(=O)=O)NC(=O)CCOS(C)(=O)=O (stereo not drawn)
dose: 264.0 mg/kg/injection, schedule: Q04DX003 (ip), vehicle: saline with Tween-80
  T/C: 213 % of control
dose: 267.0 mg/kg/injection, schedule: Q04DX003 (ip), vehicle: saline with Tween-80
  T/C: 183 % of control
[6]
  T/C: 208 % of control and 209 % of control
dose: 500.0 mg/kg/injection, schedule: Q04DX003 (ip), vehicle: saline with Tween-80
  T/C: 212 % of control
dose: 600.0 mg/kg/injection, schedule: Q04DX003 (ip), vehicle: saline with Tween-80
  T/C: 109 % of control

## COc1ccc(Br)cc1/C=C/[N+](=O)[O-]
[10]
  T/C: 87 % of control

## O=C(NNc1ccccc1)c1ccccc1
[15]
  T/C: 105 % of control
dose: 50.0 mg/kg/injection, schedule: Q04DX003 (ip), vehicle: Klucel (hydroxypropylcellulose) (HPC)
  T/C: 109 % of control
dose: 100.0 mg/kg/injection, schedule: Q01DX009 (ip), vehicle: Klucel (hydroxypropylcellulose) (HPC)
  T/C: 105 % of control
[16]
  T/C: 104 % of control
[17]
  T/C: 120 % of control
[18]
  T/C: 100 % of control

## NC(Cc1ccc(OC2CCCC2)c(N(CCCl)CCCl)c1)C(=O)O (stereo not drawn)
dose: 0.5 mg/kg/injection, schedule: Q04DX003 (ip), vehicle: Klucel (hydroxypropylcellulose) (HPC)
  T/C: 104 % of control
dose: 1.0 mg/kg/injection, schedule: Q04DX003 (ip), vehicle: Klucel (hydroxypropylcellulose) (HPC)
  T/C: 118 % of control
dose: 2.5 mg/kg/injection, schedule: Q04DX003 (ip), vehicle: saline
  T/C: 195 % of control
dose: 5.0 mg/kg/injection, schedule: Q04DX003 (ip), vehicle: saline
  T/C: 227 % of control
dose: 7.5 mg/kg/injection, schedule: Q04DX003 (ip), vehicle: saline
  T/C: 163 % of control
dose: 15.0 mg/kg/injection, schedule: Q04DX003 (ip), vehicle: other
  T/C: 179 % of control
dose: 15.0 mg/kg/injection, schedule: Q04DX003 (ip), vehicle: saline
  T/C: 154 % of control
dose: 20.0 mg/kg/injection, schedule: Q04DX003 (ip), vehicle: other
  T/C: 87 % of control
dose: 30.0 mg/kg/injection, schedule: Q04DX003 (ip), vehicle: saline
  T/C: 168 % of control

## CCOC(=O)/C=C(/CC(=O)OCC)OCC
[9]
  T/C: 106 % of control
[11]
  T/C: 100 % of control
[12]
  T/C: 115 % of control
[13]
  T/C: 106 % of control
[14]
  T/C: 112 % of control

## COC1C=COC2(C)Oc3c(C)c(O)c4c(c3C2=O)/C(=N/C2CCC(O)OC2C)C=C(NC(=O)/C(C)=C\C(=O)C2CC2C(O)C(C)C(O)C(C)C(OC(C)=O)C1C)C4=O (stereo not drawn)
dose: 4.6 mg/kg/injection, schedule: Q01DX009 (ip), vehicle: saline with Tween-80
  T/C: 101 % of control
dose: 9.25 mg/kg/injection, schedule: Q01DX009 (ip), vehicle: saline with Tween-80
  T/C: 105 % of control
dose: 18.5 mg/kg/injection, schedule: Q01DX009 (ip), vehicle: saline with Tween-80
  T/C: 89 % of control
dose: 37.0 mg/kg/injection, schedule: Q01DX009 (ip), vehicle: saline with Tween-80
  T/C: 101 % of control

## COC(=O)C(F)C(Br)C(=O)OC (stereo not drawn)
[8]
  T/C: 113 % of control
[10]
  T/C: 115 % of control
